The TGI is the concentration giving total growth inhibition. Higher therefore signals less potent growth arrest.

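How tested: cells in 96-well plates exposed to compound for 48 hours at five concentrations. At the TGI there is no net growth.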

The values that follow come from PubChem BioAssay (NCI).

The assay concerns 786-0 renal. Briefly: DTP human tumour cell line panel, 48 h.

For `c1nc(N2CC2)c2cnn(C3CCCCO3)c2n1` (stereo unspecified), the TGI is over 100 µM.
